“Also recorded” adds a separate entry of the source. Read-outs that look alike come from different tables or passages of the source.
Assays:
[1] = Acute intravenous toxicity; parameters: species or system mice; conditions: male, BALB/C, mouse, in vivo
[2] = tested on: nonsense mutation constructs (p2luc, R3381X, R3X, R245X, G542X, W1282X, Q70X, W402X); test: In vitro dual luciferase readthrough assay; format: biochemical; conditions: for reduction in overall translation: highest concentration, Renilla luciferase activity ratio, all eight constructs
[3] = tested on: hair cells of mouse organ of Corti explants; test: Ototoxicity: hair cell loss in cochlear explants; format: cell-based; conditions: 0.2 mM, basal part
[4] = tested on: PCDH15-R3X nonsense mutation; test: Ex vivo dual luciferase readthrough assay in COS-7 cells; format: cell-based, monkey
mice = conditions: cited from earlier work
premature stop codons = conditions: cited from earlier work
[5] = tested on: human CFTR-G542X nonsense mutation; conditions: clinical doses, transgenic CF mouse; cited from earlier work
[6] = tested on: human cytoplasmic A site sequence; conditions: cited from earlier work

CNC(C)C1CCC(N)C(OC2C(N)CC(N)C(OC3OCC(C)(O)C(NC)C3O)C2O)O1 (stereo not shown) [Gentamicin, gentamicin]
LD50 at 4 days [1]: 60 mg/kg
reduction in overall translation [2]: approximately 50%
hair cell loss in cochlear explants [3]: hair cell loss was almost complete; also recorded: cell loss is almost complete
maximal suppression level ([4]; COS-7 cells): 1.86%

NCCC(O)C(=O)NC1CC(N)C(OC2OC(CN)C(O)C(O)C2N)C(O)C1O (stereo not shown) [N-1-AHB-neamine]
LD50 (mice; acute lethal toxicity): 260 mg/kg

NC[C@@H]1O[C@H](O[C@H]2[C@@H](O)[C@H](O[C@@H]3[C@@H](O)[C@H](N)C[C@H](N)[C@H]3O[C@H]3O[C@H](CO)[C@@H](O)[C@H](O)[C@H]3N)O[C@@H]2CO)[C@H](N)[C@@H](O)[C@@H]1O [Paromomycin, paromomycin]
reduction in overall translation [2]: approximately 40%

NCC[C@H](O)C(=O)N[C@@H]1C[C@H](N)[C@@H](O[C@H]2O[C@H](CN)[C@@H](O)[C@H](O)[C@H]2O)[C@H](O)[C@H]1O[C@H]1O[C@H](CO)[C@@H](O)[C@H](N)[C@H]1O [amikacin]
readthrough potency, fold lower than gentamicin (premature stop codons): over 10 fold
suppression of CFTR-G542X nonsense mutation [5]: highly effective suppression
LD50 (mice; acute intravenous toxicity in mice): 300 mg/kg

NCC[C@H](O)C(=O)N[C@@H]1C[C@H](N)[C@@H](O[C@H]2O[C@H](CN)CC[C@H]2N)[C@H](O)[C@H]1O[C@H]1O[C@H](CO)[C@@H](O)[C@H](N)[C@H]1O [arbekacin]
LD50 (mice; acute lethal toxicity): 118 mg/kg

NC[C@H]1O[C@@H](O[C@@H]2[C@@H](O)[C@H](N)C[C@H](N)[C@H]2O[C@H]2O[C@H](CO)[C@@H](O)[C@H](O)[C@H]2N)[C@H](O)[C@@H]1O [compound 1]
fold weaker affinity than paromomycin [6]: about 100 fold

NCC[C@H](O)C(=O)N[C@@H]1C[C@H](N)[C@@H](O[C@H]2O[C@H](CO)[C@@H](O)[C@H](O)[C@H]2N)[C@H](O[C@@H]2O[C@H](CN)[C@@H](O)[C@H]2O)[C@H]1O [compound 2, 5-O-(5-Amino-5-deoxy-β-D-ribofuranosyl)-1-N-[(S)-4-amino-2-hydroxy-butanoyl]paromamine]
reduction in overall translation [2]: approximately 50%
level of readthrough (rank among four aminoglycosides) ([2]; in vitro, eight constructs): induced the highest level of readthrough
fold more effective (maximal suppression) than compound 1 ([4]; COS-7, vs compound 1): 1.9 fold
fold more effective (maximal suppression) than gentamicin ([4]; COS-7, vs gentamicin): 2.8 fold
fold more effective (maximal suppression) than paromomycin ([4]; COS-7, vs paromomycin): 3.2 fold

NC[C@@H]1CC[C@@H](N)[C@@H](O[C@H]2[C@H](O)[C@@H](O[C@H]3O[C@H](CO)[C@@H](O)[C@H](N)[C@H]3O)[C@H](N)C[C@@H]2N)O1 [dibekacin]
LD50 (mice; acute lethal toxicity): 71 mg/kg

NC[C@H]1O[C@H](O[C@H]2[C@H](O)[C@@H](O)[C@H](N)C[C@@H]2N)[C@H](N)[C@@H](O)[C@@H]1O [neamine]
LD50 (mice; acute lethal toxicity): 125 mg/kg

NC[C@H]1O[C@H](O[C@H]2[C@H](O[C@@H]3O[C@H](CO)[C@@H](O)[C@H]3O)[C@@H](O)[C@H](N)C[C@@H]2N)[C@H](N)[C@@H](O)[C@@H]1O [ribostamycin]
LD50 (mice; acute lethal toxicity): 260 mg/kg

NC[C@H]1O[C@H](O[C@H]2[C@H](O)[C@@H](O[C@H]3O[C@H](CO)[C@@H](O)[C@H](N)[C@H]3O)[C@H](N)C[C@@H]2N)[C@H](N)C[C@@H]1O [tobramycin]
suppression activity (premature stop codons): does not have suppression activity

butirosin
LD50 (mice; acute lethal toxicity): 520 mg/kg

kanamycin A
readthrough activity (premature stop codons): does not show measurable readthrough activity
